Tested on: HUVECs
Experiment: Tubule formation assay on Matrigel
Format: cell-based, Human
Conditions: 25 μM, 24 hrs, assessed under microscope
Description: FIG. 5: HUVECs were plated on Matrigel, then treated wither DMSO or Compound 1 for 24 hrs. Tubule formation was assessed by looking under microscope.
Human umbilical vascular endothelial cells (HUVECs) (50,000 cells/well) were plated on Matrigel. After 30 min, the cells were treated either with DMSO or 25 μM Compound 1. Tubule formation was assessed by observing plates under microscope. FIG. 6 is represents 24 hr time point for DMSO and Compound 1.

With `N#Cc1ccc(Cn2cc(C=C3C(=O)NC(=O)NC3=O)c3ccccc32)cc1` [Compound 1, 4-((3-((2,4,6-trioxotetrahydropyrimidin-5(6H)-ylidene)methyl)-1H-indol-1-yl)meth-yl)benzonitrile] the “Tubule formation by HUVECs” value was “inhibited the tubule formation”.
